Series [1] addresses T1, 6-phosphogluconate dehydrogenase, decarboxylating (Rattus norvegicus, UniProt P85968).
T1 sequence (P85968 whole entry): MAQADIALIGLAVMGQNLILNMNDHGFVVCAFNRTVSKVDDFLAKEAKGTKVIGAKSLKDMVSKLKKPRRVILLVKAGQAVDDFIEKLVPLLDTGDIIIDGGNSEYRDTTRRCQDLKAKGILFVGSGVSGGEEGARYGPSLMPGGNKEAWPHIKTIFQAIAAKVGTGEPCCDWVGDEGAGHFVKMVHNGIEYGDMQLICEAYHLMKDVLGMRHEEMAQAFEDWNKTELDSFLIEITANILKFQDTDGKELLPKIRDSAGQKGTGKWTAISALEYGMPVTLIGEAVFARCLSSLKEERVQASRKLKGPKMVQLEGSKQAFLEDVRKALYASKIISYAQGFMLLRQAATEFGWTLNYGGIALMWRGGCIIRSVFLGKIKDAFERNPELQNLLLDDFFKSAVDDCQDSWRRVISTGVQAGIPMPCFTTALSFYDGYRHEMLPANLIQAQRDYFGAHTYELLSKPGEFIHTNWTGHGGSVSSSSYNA
Briefly: Inhibition of rat 6PGD assessed as inhibition constant by spectrophotometric method.

The target in series [2] is T2, Glutathione reductase (Rattus norvegicus, UniProt P70619).
T2 sequence (P70619 whole entry): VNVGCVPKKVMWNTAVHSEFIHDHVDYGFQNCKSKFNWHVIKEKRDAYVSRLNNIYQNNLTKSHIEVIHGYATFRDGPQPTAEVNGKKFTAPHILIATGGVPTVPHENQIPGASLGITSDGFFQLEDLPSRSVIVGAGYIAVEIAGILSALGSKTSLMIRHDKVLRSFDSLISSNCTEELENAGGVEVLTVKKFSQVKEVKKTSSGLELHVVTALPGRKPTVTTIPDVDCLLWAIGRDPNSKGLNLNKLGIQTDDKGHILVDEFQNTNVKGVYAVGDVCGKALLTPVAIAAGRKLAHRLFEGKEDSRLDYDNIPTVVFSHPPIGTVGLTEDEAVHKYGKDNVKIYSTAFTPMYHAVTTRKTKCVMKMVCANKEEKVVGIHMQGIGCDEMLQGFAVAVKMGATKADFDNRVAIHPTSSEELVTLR
As to the kind of experiment: Inhibition of rat glutathione reductase by spectrophotometric method.

Series [3] concerns the target Glucose-6-phosphate 1-dehydrogenase (Rattus norvegicus, UniProt P05370). As to the kind of experiment: Inhibition of rat G6PD by spectrophotometric method.
Series [4] deals with T1, 6-phosphogluconate dehydrogenase, decarboxylating. Briefly: Inhibition of rat 6PGD by spectrophotometric method.
The target in series [5] is T3, 6-phosphogluconate dehydrogenase, decarboxylating (Homo sapiens) (UniProt P52209).
T3 sequence (whole entry): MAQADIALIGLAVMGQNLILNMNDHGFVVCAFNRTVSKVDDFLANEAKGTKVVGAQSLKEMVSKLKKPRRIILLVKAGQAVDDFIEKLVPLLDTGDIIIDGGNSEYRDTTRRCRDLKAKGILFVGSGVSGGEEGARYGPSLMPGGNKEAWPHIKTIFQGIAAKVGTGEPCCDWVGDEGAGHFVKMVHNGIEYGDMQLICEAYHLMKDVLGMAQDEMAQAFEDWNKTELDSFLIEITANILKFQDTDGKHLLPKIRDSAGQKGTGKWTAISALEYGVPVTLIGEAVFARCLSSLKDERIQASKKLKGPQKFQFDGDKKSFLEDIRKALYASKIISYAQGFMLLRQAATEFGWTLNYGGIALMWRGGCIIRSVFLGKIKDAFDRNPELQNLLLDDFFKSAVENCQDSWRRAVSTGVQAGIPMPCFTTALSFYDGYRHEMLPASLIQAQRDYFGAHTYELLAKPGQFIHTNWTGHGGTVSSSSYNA
Briefly: Inhibition of 6PGD in human A38-5 cells assessed as increase in intracellular H3K9me3 level at 0.1 to 1000 uM incubated for 45 mins by HTRF assay. In kind it is cell-based. The note with it: dose 0.1-1000 µM. Background: In TR-FRET formats the signal depends on donor and acceptor labels being close together.

Series [6] deals with T3, 6-phosphogluconate dehydrogenase, decarboxylating (Homo sapiens). Briefly: Inhibition of 6PGD in human A38-5 cells assessed as increase in Ru-5-P level at 250 uM incubated for 72 hrs by mass spectrometry. It counts as cell-based.
Series [7] has the same target. Briefly: Inhibition of 6PGD in human A38-5 cells assessed as fold increase in 6PG level at 250 uM incubated for 72 hrs by mass spectrometry. In kind it is cell-based.
The target is the same in series [8]. As to the kind of experiment: Inhibition of 6PGD in human A38-5 cells assessed as fold increase in intracellular H3K9me3 level at 250 uM incubated for 45 mins by HTRF assay. It counts as cell-based.
The nature of series [9]: Neurotoxicity against Sprague-Dawley rat Primary hippocampal neuron assessed as increase in TUNEL positive cells at 50 uM incubated for 24 hrs by TUNEL staining based microscopy. It counts as toxicity, cell-based. The note with it: hippocampal neurone.
The nature of series [10]: Neurotoxicity against Sprague-Dawley rat Primary hippocampal neuron assessed as increase in TUNEL positive cells at 5 uM incubated for 24 hrs by TUNEL staining based microscopy. In kind it is toxicity, cell-based. The note with it: hippocampal neurone.
Series [11] concerns the target Glucose-6-phosphate 1-dehydrogenase (Homo sapiens) (UniProt P11413). As to the kind of experiment: Inhibition of G6PD in human A38-5 cells assessed as fold increase in G6P level at 250 uM incubated for 72 hrs by mass spectrometry. In kind it is cell-based.
The target of series [12] is T3, 6-phosphogluconate dehydrogenase, decarboxylating (Homo sapiens). As to the kind of experiment: Inhibition of 6PGD in human A38-5 cells assessed as increase in Ru-5-P level at 15.6 uM incubated for 72 hrs by mass spectrometry. It counts as cell-based.
For series [13], the target named is Glucose-6-phosphate 1-dehydrogenase (Homo sapiens) (UniProt P11413). Briefly: Inhibition of G6PD in human A38-5 cells assessed as fold increase in G6P level at 15.6 uM incubated for 72 hrs by mass spectrometry. It counts as cell-based.
Series [14] concerns A38-5. As to the kind of experiment: Cytotoxicity against human A38-5 cells assessed as reduction in cell viability at 0.06 to 250 uM incubated for 72 hrs by CellTiter-Glo assay relative to 6AN. In kind it is functional, cell-based. The note with it: dose 0.06-250 µM. For orientation: Cellular ATP, detected with luciferase, serves as a proxy for viable cell number.
Series [15] concerns the target T3, 6-phosphogluconate dehydrogenase, decarboxylating (Homo sapiens). As to the kind of experiment: Inhibition of 6PGD in human A38-5 cells assessed as increase in intracellular H3K9me3 expression level at 1 to 250 uM incubated for 72 hrs by western blot analysis. In kind it is cell-based. The note with it: dose 1-250 µM. (A western blot detects proteins with antibodies after separation by electrophoresis.)

Series [16] has the same target. Briefly: Inhibition of 6PGD in human A38-5 cells assessed as fold increase in 6PG level at 15.6 uM incubated for 72 hrs by mass spectrometry. In kind it is cell-based.
For series [17] the target is unchanged. As to the kind of experiment: Inhibition of 6PGD in human A38-5 cells assessed as increase in intracellular H3K9me3 level at 1 uM incubated for 45 mins by HTRF assay. In kind it is cell-based.

The term Ki denotes the equilibrium dissociation constant of an inhibitor or competing ligand from its target. As usually defined, the IC50 is the midpoint of a concentration-inhibition curve.

Activity calls are given as the source filed them. The calls are words filed in the database; no cut-off is given here.

Glucose-6-phosphate 1-dehydrogenase (Homo sapiens), sequence (P11413 whole entry): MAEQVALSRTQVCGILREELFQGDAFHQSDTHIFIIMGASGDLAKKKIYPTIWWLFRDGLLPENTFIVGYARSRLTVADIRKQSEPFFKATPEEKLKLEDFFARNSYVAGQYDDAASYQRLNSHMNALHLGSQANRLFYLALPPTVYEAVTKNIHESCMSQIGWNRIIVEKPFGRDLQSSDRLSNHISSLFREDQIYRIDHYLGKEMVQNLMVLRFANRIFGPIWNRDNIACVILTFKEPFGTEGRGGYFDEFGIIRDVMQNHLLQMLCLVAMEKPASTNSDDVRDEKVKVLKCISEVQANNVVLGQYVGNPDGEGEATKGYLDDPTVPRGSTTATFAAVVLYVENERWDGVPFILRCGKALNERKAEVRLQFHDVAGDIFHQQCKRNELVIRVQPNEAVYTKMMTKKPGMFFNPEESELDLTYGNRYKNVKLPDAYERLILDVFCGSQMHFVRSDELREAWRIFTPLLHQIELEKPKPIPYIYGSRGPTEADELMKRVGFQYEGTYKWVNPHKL
Glucose-6-phosphate 1-dehydrogenase, sequence (P05370 whole entry): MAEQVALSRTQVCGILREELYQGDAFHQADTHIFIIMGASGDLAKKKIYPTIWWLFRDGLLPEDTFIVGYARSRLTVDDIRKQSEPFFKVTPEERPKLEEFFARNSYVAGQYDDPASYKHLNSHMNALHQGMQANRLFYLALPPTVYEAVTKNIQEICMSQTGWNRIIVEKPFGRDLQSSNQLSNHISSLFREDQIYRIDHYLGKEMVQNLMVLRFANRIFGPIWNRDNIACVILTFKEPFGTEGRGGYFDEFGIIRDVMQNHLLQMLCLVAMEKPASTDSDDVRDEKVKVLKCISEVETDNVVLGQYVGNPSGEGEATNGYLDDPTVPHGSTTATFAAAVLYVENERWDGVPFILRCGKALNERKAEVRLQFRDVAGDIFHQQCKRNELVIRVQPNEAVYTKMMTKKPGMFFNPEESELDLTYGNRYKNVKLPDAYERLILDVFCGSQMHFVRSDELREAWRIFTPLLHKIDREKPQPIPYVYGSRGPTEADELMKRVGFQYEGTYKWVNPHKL

Regarding `NC(=O)c1ccc(N)[n+]([C@@H]2O[C@H](COP(=O)(O)OP(=O)(O)OC[C@H]3O[C@@H](n4cnc5c(N)ncnc54)[C@H](OP(=O)(O)O)[C@@H]3O)[C@@H](O)[C@H]2O)c1`, the Ki in [1] is 0.1 µM. Besides, the IC50 in series [2] was 46 µM; in series [3], 70 µM; in series [4], 0.2 µM.

As to `CCCC(=O)OCOC(=O)c1ccc(N)nc1`, the “activity outcome (qualitative)” value in series [5] was “Active”.

For `NC(=O)c1ccc(N)nc1` [6-AMINONICOTINAMIDE], the inhibition result in [6] was “Active”. The fold change (FC) was found to be 150 in series [7], 2.5 in series [8] and 2 in [11]. The Activity entry in [9] and in [10] was “Toxic” each time. In addition, the “activity outcome (qualitative)” value in series [5] (DDE = dose-dependent effect) is “Dde”.

On to `CC(C)C(=O)OCOC(=O)c1ccc(N)nc1`, for which the “activity outcome (qualitative)” value in [5] is “Active”.

For `CC(OC(=O)OC1CCCCC1)OC(=O)c1ccc(N)nc1` (stereo not given), the inhibition entry in series [12], in [15] and in [17] was “Active” in each case. The Activity entry in series [9] and in series [10] was “Non-Toxic” each time. The fold change (FC) in series [13] was determined as 2; in series [16], 150. In series [5] (DDE = dose-dependent effect), the “activity outcome (qualitative)” value was “Dde”. In addition, the outcome in [14] was Active.

`CCOC(=O)OCOC(=O)c1ccc(N)nc1`: the “activity outcome (qualitative)” value in series [5] (DDE = dose-dependent effect) was “Dde”.

On to `CC(=O)OCOC(=O)c1ccc(N)nc1`, for which the “activity outcome (qualitative)” value in series [5] is “Active”.

In the case of `CCOC(=O)OC(C)OC(=O)c1ccc(N)nc1` (stereo not given), the “activity outcome (qualitative)” value in [5] (DDE = dose-dependent effect) is “Dde”.

These data come from ChEMBL document CHEMBL5104218, “Effects of 6-Aminonicotinic Acid Esters on the Reprogrammed Epigenetic State of Distant Metastatic Pancreatic Carcinoma” (ACS Med Chem Lett, 2022).
